pIC50: −log10 of the molar value. Read-outs that look alike come from different tables or passages of the source.
Key:
IRAK4 = IRAK4 (Homo sapiens (Human), UniProt Q9NWZ3); assay: IRAK4 MSD degradation in OCI-LY10; assay type: cell-based; details: MSD
Outline: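 OCI-LY10 cells treated with 8-point 1:3 dilutions (top 1 to 10 μM final) for 4 to 24 h at 37° C. Lysate IRAK4 measured by MSD sandwich immunoassay (2H9 capture, Y279 detection, SULFO-TAG anti-rabbit). DC50 from three-parameter logistic fit.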

OCI-LY10 = assay: CTG Cell Viability Assay - OCI-LY10; assay type: cell-based, human; details: OCI-LY10, 4 days, read-out: CTG Cell Viability Assay - OCI-LY10: Average external-IC50
Outline: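 OCI-LY10 cells exposed to 9-dose, 1:3 dilutions from 10 μM top (0.2% DMSO) for 4 days at 37° C, 5% CO2. Viability by CellTiter-Glo luminescence; IC50 from three-parameter logistic fit.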

[1] = OCI-LY10, 4 hrs, read-out: IRAK4 MSD degradation in OCI-LY10 at 4 hrs: Average external-Abs DC50
[2] = OCI-LY10, 24 hrs, read-out: IRAK4 MSD degradation in OCI-LY10 at 24 hrs: Average external-Abs DC50

Sequence of IRAK4 (Q9NWZ3 whole entry): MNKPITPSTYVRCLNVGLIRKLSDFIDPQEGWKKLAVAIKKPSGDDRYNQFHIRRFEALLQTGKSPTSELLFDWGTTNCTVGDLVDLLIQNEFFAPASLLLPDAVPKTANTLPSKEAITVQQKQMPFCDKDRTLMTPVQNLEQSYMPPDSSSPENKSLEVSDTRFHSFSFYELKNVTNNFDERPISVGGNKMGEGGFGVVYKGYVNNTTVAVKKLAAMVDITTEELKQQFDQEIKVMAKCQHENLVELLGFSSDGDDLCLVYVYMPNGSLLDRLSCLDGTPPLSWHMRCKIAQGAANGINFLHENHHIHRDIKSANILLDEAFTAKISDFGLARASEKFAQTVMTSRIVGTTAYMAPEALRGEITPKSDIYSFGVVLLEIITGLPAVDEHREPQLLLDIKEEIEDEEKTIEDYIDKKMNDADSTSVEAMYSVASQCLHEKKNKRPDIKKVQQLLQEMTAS

Row | SMILES | DC50 (IRAK4; [1]) | pIC50 (OCI-LY10; Homo sapiens, OCI-Ly10, 96 h) | DC50 (IRAK4; [2]) | pIC50 (OCI-LY10)
1 | CN(CCN(C)CC1CCC(n2cc(NC(=O)c3cnn4ccc(N5C[C@H]6C[C@@H]5CO6)nc34)c(C(F)F)n2)CC1)Cc1ccc(COc2cccc3c2C(=O)N(C2CCC(=O)NC2=O)C3=O)cc1 (stereo partly shown) [I-335] | 0.1 to 1 µM | 6.00 to 6.30 | – | –
2 | CN(CCc1ccc(CCNc2cccc3c2C(=O)N(C2CCC(=O)NC2=O)C3=O)cc1)C[C@H]1CC[C@H](n2cc(NC(=O)c3cnn4ccc(N5C[C@H]6C[C@@H]5CO6)nc34)c(C(F)F)n2)CC1 (stereo partly shown) [I-336] | 0.1 to 1 µM | 7.00 to 7.30 | 0.01 to 0.1 µM | –
3 | CN(CCN1CCO[C@@H](CCNc2cccc3c2C(=O)N(C2CCC(=O)NC2=O)C3=O)C1)C[C@H]1CC[C@H](n2cc(NC(=O)c3cnn4ccc(N5C[C@H]6C[C@@H]5CO6)nc34)c(C(F)F)n2)CC1 (stereo partly shown) [I-337] | 0.1 to 1 µM | 7.00 to 7.30 | 0.01 to 0.1 µM | –
4 | CC[C@@H]1[C@H](F)C(=O)N[C@@H]1COc1ncc(C#C[C@H]2CC[C@H](CN(C)CCCc3ccc(CNc4cccc5c4C(=O)N(C4CCC(=O)NC4=O)C5=O)cc3)CC2)c2cc(C(N)=O)c(OC)cc12 (stereo partly shown) [I-338] | 0.1 to 1 µM | > 7.30 | – | –
5 | CN(CCN1CCO[C@@H](CCNc2cccc3c2C(=O)N(C2CCC(=O)NC2=O)C3=O)C1)C[C@H]1CC[C@H](n2cc(NC(=O)c3coc(-c4ccnc(NCC5CC5)c4)n3)c(C(F)F)n2)CC1 (stereo partly shown) [I-339] | 0.01 to 0.1 µM | 7.00 to 7.30 | 0.01 to 0.1 µM | –
6 | CN(CCN1CCO[C@H](CCNc2cccc3c2C(=O)N(C2CCC(=O)NC2=O)C3=O)C1)C[C@H]1CC[C@H](n2cc(NC(=O)c3cnn4ccc(N5C[C@H]6C[C@@H]5CO6)nc34)c(C(F)F)n2)CC1 (stereo partly shown) [I-340] | 0.1 to 1 µM | 6.30 to 7.00 | 0.01 to 0.1 µM | –
7 | CN(Cc1ccc(CCNc2cccc3c2C(=O)N(C2CCC(=O)NC2=O)C3=O)cc1)C[C@H]1CC[C@H](n2cc(NC(=O)c3cnn4ccc(N5C[C@H]6C[C@@H]5CO6)nc34)c(C(F)F)n2)CC1 (stereo partly drawn) [I-341, N-[3-(difluoromethyl)-1-[4-[[[4-[2-[[2-(2,6-dioxo-3-piperidyl)-1,3-dioxo-isoindolin-4-yl]amino]ethyl]phenyl]methyl-methyl-amino]methyl]cyclohexyl]pyrazol-4-yl]-5-[(1R,4R)-2-oxa-5-azabicyclo [2.2.1]heptan-5-yl] pyrazolo [1,5-a] pyrimidine-3-carboxamide] | 0.1 to 1 µM | < 6.00 | 0.01 to 0.1 µM | –
8 | CC[C@@H]1[C@H](F)C(=O)N[C@@H]1COc1ncc(C#C[C@H]2CC[C@H](CN3CCO[C@@H](COCCCNc4cccc5c4C(=O)N(C4CCC(=O)NC4=O)C5=O)C3)CC2)c2cc(C(N)=O)c(OC)cc12 (stereo partly shown) [I-342] | 0.1 to 1 µM | 7.00 to 7.30 | – | –
9 | CN(C[C@@H]1CN(CCCCc2cccc3c2C(=O)N(C2CCC(=O)NC2=O)C3=O)CCO1)C[C@H]1CC[C@H](n2cc(NC(=O)c3coc(-c4ccnc(NCC5CC5)c4)n3)c(C(F)F)n2)CC1 (stereo partly shown) [I-343] | 0.01 to 0.1 µM | – | – | > 7.30
10 | O=C1CCC(N2C(=O)c3cccc(NCCCOC4CCN(C[C@H]5CC[C@H](n6cc(NC(=O)c7cnn8ccc(N9CC%10CC(C9)O%10)nc78)c(C(F)F)n6)CC5)CC4)c3C2=O)C(=O)N1 (stereo partly shown) [I-344] | 0.1 to 1 µM | > 7.30 | – | –
11 | O=C1CCC(N2C(=O)c3cccc(NCCCOC4CCN(C[C@H]5CC[C@H](n6cc(NC(=O)c7cnn8ccc(N9C%10COCC9C%10)nc78)c(C(F)F)n6)CC5)CC4)c3C2=O)C(=O)N1 (stereo partly shown) [I-345] | 0.1 to 1 µM | > 7.30 | 0.01 to 0.1 µM | –
12 | O=C1CCC(N2C(=O)c3cccc(NCCc4ccc(CCNC[C@H]5CC[C@H](n6cc(NC(=O)c7cnn8ccc(N9C[C@H]%10C[C@@H]9CO%10)nc78)c(C(F)F)n6)CC5)cc4)c3C2=O)C(=O)N1 (stereo partly drawn) [I-346, N-[3-(difluoromethyl)-1-[4-[[2-[4-[2-[[2-(2,6-dioxo-3-piperidyl)-1,3-dioxo-isoindolin-4-yl]amino]ethyl]phenyl]ethylamino]methyl]cyclohexyl]pyrazol-4-yl]-5-[(1R,4R)-2-oxa-5-azabicyclo[2.2.1]heptan-5-yl]pyrazolo[1,5-a]pyrimidine-3-carboxamide] | > 1 µM | > 7.30 | – | –
13 | CN(CCCN1CCO[C@@H](CNc2cccc3c2C(=O)N(C2CCC(=O)NC2=O)C3=O)C1)C[C@H]1CC[C@H](n2cc(NC(=O)c3cnn4ccc(N5C[C@H]6C[C@@H]5CO6)nc34)c(C(F)F)n2)CC1 (stereo partly shown) [I-347] | 0.1 to 1 µM | > 7.30 | 0.01 to 0.1 µM | –
14 | O=C1CCC(N2C(=O)c3cccc(NCCCOC4CCN(C[C@H]5CC[C@H](n6ncc(NC(=O)c7cnn8ccc(N9C[C@H]%10CC9CO%10)nc78)c6C(=O)O)CC5)CC4)c3C2=O)C(=O)N1 (stereo partly shown) [I-348] | > 1 µM | < 6.00 | > 1 µM | –
15 | CN(C[C@H]1CN(CCCNc2cccc3c2C(=O)N(C2CCC(=O)NC2=O)C3=O)CCO1)C[C@H]1CC[C@H](n2cc(NC(=O)c3cnn4ccc(N5C[C@H]6C[C@@H]5CO6)nc34)c(C(F)F)n2)CC1 (stereo partly shown) [I-349] | 0.1 to 1 µM | > 7.30 | 0.01 to 0.1 µM | –
16 | CN(C[C@H]1CC[C@H](n2cc(NC(=O)c3cnn4ccc(N5CCOCC5)nc34)c(C(F)F)n2)CC1)[C@H]1CC[C@@H](Nc2cccc3c2C(=O)N(C2CCC(=O)NC2=O)C3=O)CC1 (stereo partly shown) [I-350] | 0.1 to 1 µM | < 6.00 | 0.01 to 0.1 µM | –
17 | O=C1CCC(N2C(=O)c3cccc(NCCc4ccc(CNC[C@H]5CC[C@H](n6cc(NC(=O)c7cnn8ccc(N9C[C@H]%10C[C@@H]9CO%10)nc78)c(C(F)F)n6)CC5)cc4)c3C2=O)C(=O)N1 (stereo partly drawn) [I-351, N-[3-(difluoromethyl)-1-[4-[[[4-[2-[[2-(2,6-dioxo-3-piperidyl)-1,3-dioxo-isoindolin-4-yl]amino]ethyl]phenyl]methylamino]methyl]cyclohexyl]pyrazol-4-yl]-5-[(1R,4R)-2-oxa-5-azabicyclo[2.2.1]heptan-5-yl]pyrazolo[1,5-a]pyrimidine-3-carboxamide] | > 1 µM | < 6.00 | – | –
18 | O=C1CCC(N2C(=O)c3cccc(NCCCOC[C@@H]4CN(C[C@H]5CC[C@H](n6cc(NC(=O)c7cnn8ccc(N9C[C@H]%10C[C@@H]9CO%10)nc78)c(C(F)F)n6)CC5)CCO4)c3C2=O)C(=O)N1 (stereo partly shown) [I-352] | > 1 µM | 6.00 to 6.30 | 0.01 to 0.1 µM | –
19 | O=C1CCC(N2C(=O)c3cccc(NCCCOC[C@@H]4CN(C[C@H]5CC[C@H](n6cc(NC(=O)c7coc(-c8ccnc(NCC9CC9)c8)n7)c(C(F)F)n6)CC5)CCO4)c3C2=O)C(=O)N1 (stereo partly shown) [I-353] | 0.01 to 0.1 µM | 6.30 to 7.00 | 0.01 to 0.1 µM | –
20 | O=C1CCC(N2C(=O)c3cccc(NCCCCCCC[C@H]4CC[C@H](n5cc(NC(=O)c6cnn7ccc(N8C[C@H]9C[C@@H]8CO9)nc67)c(C(F)F)n5)CC4)c3C2=O)C(=O)N1 (stereo partly shown) [I-354] | > 1 µM | < 6.00 | – | –
21 | CN(C[C@H]1CC[C@H](n2cc(NC(=O)c3cnn4ccc(N5CCOCC5)nc34)c(C(F)F)n2)CC1)[C@H]1CC[C@H](Nc2cccc3c2C(=O)N(C2CCC(=O)NC2=O)C3=O)CC1 (stereo partly shown) [I-355] | 0.01 to 0.1 µM | 6.30 to 7.00 | < 0.01 µM | –
22 | O=C1CCC(N2C(=O)c3cccc(NCc4ccc(CN5CCN(C[C@H]6CC[C@H](n7cc(NC(=O)c8cnn9ccc(N%10CCOCC%10)nc89)c(C(F)F)n7)CC6)CC5)cc4)c3C2=O)C(=O)N1 (stereo partly shown) [I-356] | > 1 µM | > 7.30 | 0.01 to 0.1 µM | –

— patent US11352350B2, “IRAK degraders and uses thereof” (Kymera Therapeutics, Inc., priority 2018, dated 2022)
